26 substances from patent publication US9597407B2, “Targeted antimicrobial moieties” (C3 Jian, Inc., priority 2009, dated 2017) can be followed below.

The assay has as its system microorganisms. In words: Morphology, biofilm and growth disruption by peptides (Table 5). Details: key: A: Peptide aggregates; B: Less hyphal formation; Clumps; Diffuse clumps and small polyps; F: Diffuse growth; H: Thin; I: Growth inhibition; Microcolony formation; Rippled; Small polyps; Thick; W: Halo formation on top, microlonies on bottom. The class given is cell-based. The text has this: In certain embodiments peptides that induce alterations in phenotype or other biological activities can also be used as antimicrobial effector moieties.

As to “PF-203 (SWKCHHLAI; Peptide with targeting and/or antimicrobial activity)”, the “Organism, effect” value (C. jeikeium) is listed as “C. jeikeium (R)” and the “Organism, effect” value (S. epidermidis) is given as “S. epidermidis (A)”.

“PF-220 (VDPADDGTRHIRPEDGDPIEIDE; Peptide with targeting and/or antimicrobial activity)”: for the setting “S. pneumoniae”, the “Organism, effect” value is reported as “S. pneumoniae (H)”.

“PF-250 (SEDIFGRLANEKANGLEELRKIRLKQ; Peptide with targeting and/or antimicrobial activity)”: for the setting “M. luteus”, the “Organism, effect” value is “M. luteus (T)”.

On to “PF-264 (MQSLSNRQSLIASYILMGIFLSFGYPPASLSKFFCRLSHL; Peptide with targeting and/or antimicrobial activity)”, for which, for the setting “M. luteus”, the “Organism, effect” value is recorded as “M. luteus (H)”.

For “PF-274 (SIQEAEKIIKNDPFYIHDVADYDFMWFEPSKSLEEIKEFV; Peptide with targeting and/or antimicrobial activity)”, the “Organism, effect” value (M. luteus) is given as “M. luteus (M)”.

As to “PF-290 (MVHDMTNGTLIIVKH; Peptide with targeting and/or antimicrobial activity)”, the “Organism, effect” value (S. epidermidis) is reported as “S. epidermidis (C)”.

On to “PF-293 (YDPLK; Peptide with targeting and/or antimicrobial activity)”, for which the “Organism, effect” value (S. epidermidis) is on record as “S. epidermidis (C)”.

Regarding “PF-296 (GAFGMPSIKTNTICGEKGKFISACDAWLSNLK; Peptide with targeting and/or antimicrobial activity)”, the “Organism, effect” value reads like this: (B. subtilis) “B. subtilis (C)”; (S. epidermidis) “S. epidermidis (C)”.

As to “PF-303 (EYPWSWISEPWPWDKSFYK; Peptide with targeting and/or antimicrobial activity)”, the “Organism, effect” value (B. subtilis) is reported as “B. subtilis (C)”.

With “PF-310 (GVALIGTILVPLLSGLFG; Peptide with targeting and/or antimicrobial activity)”, under “S. epidermidis”, the “Organism, effect” value is reported as “S. epidermidis (C)”.

Turning to “PF-318 (MGRHLWNPSYFVATVSENTEEQIRKYINNQKKQVK; Peptide with targeting and/or antimicrobial activity)”, the “Organism, effect” value by setting is: (B. subtilis) “B. subtilis (C)”; (S. epidermidis) “S. epidermidis (C)”.

In the case of “PF-335 (AAYPIEDWSDWYEDFFIMLSNI; Peptide with targeting and/or antimicrobial activity)”, the “Organism, effect” value is reported as “B. subtilis (C)” (B. subtilis) and “S. epidermidis (C)” (S. epidermidis).

“PF-339 (KKIDILINKYMYLSK; Peptide with targeting and/or antimicrobial activity)”: the “Organism, effect” value was “B. subtilis (C)” (B. subtilis) and “S. epidermidis (C)” (S. epidermidis).

Consider “PF-342 (AFSGVYKTLIVYTRRK; Peptide with targeting and/or antimicrobial activity)”, for which the “Organism, effect” value is “B. subtilis (C)” (B. subtilis) and “S. epidermidis (C)” (S. epidermidis).

Consider “PF-347 (GIFTGVTVVVSLKHC; Peptide with targeting and/or antimicrobial activity)”, for which the “Organism, effect” value (E. coli) was “E. coli (C)”; the “Organism, effect” value (E. faecalis) is “E. faecalis (C)”; the “Organism, effect” value (MRSA) is given as “MRSA (C)”; the “Organism, effect” value (S. epidermidis) is “S. epidermidis (C)”.

As to “PF-398 (ILVVLAGILLVVLSYVGISKFKMNC; Peptide with targeting and/or antimicrobial activity)”, the “Organism, effect” value is on record as “E. coli (C)” (E. coli), “E. faecalis (C)” (E. faecalis), “MRSA (C)” (MRSA) and “S. epidermidis (C)” (S. epidermidis).

Turning to “PF-399 (FPIISALLGAIICIAIYSFIVNRKA; Peptide with targeting and/or antimicrobial activity)”, the “Organism, effect” value (E. coli) was “E. coli (C)”; the “Organism, effect” value (E. faecalis) is reported as “E. faecalis (C)”; the “Organism, effect” value (MRSA) was “MRSA (C)”; the “Organism, effect” value (S. epidermidis) is reported as “S. epidermidis (C)”.

In the case of “PF-407 (KPKNKKEKTVISYEKLLSMY; Peptide with targeting and/or antimicrobial activity)”, the “Organism, effect” value is given as “E. faecalis (R)” (E. faecalis), “MRSA (C)” (MRSA), “S. epidermidis (M)” (S. epidermidis) and “S. pneumoniae (R)” (S. pneumoniae).

As to “PF-410 (FALELIALCRNLFIVYFP; Peptide with targeting and/or antimicrobial activity)”, the “Organism, effect” value is on record as “E. coli (S)” (E. coli), “E. faecalis (C)” (E. faecalis), “MRSA (M)” (MRSA) and “S. epidermidis (C)” (S. epidermidis).

“PF-411 (WVAVAILLNIALQTQLT; Peptide with targeting and/or antimicrobial activity)”: the “Organism, effect” value is given as “C. jejuni (D)” (C. jejuni); “E. coli (C)” (E. coli); “E. faecalis (D)” (E. faecalis); “MRSA (D)” (MRSA); “P. aeruginosa (A)” (P. aeruginosa); “S. epidermidis (C)” (S. epidermidis). The “Organism, effect” value (S. pneumoniae) is on record as “S. pneumoniae (D)”.

As to “PF-415 (MIDVTIGQKSKTGAFNASYSICFSGENFSF; Peptide with targeting and/or antimicrobial activity)”, for the setting “S. pneumoniae”, the “Organism, effect” value was “S. pneumoniae (D)”.

“PF-418 (FFLVHFYIRKRKGKVSIFLNYF; Peptide with targeting and/or antimicrobial activity)”: the “Organism, effect” value is “C. jejuni (D)” (C. jejuni); “E. coli (C)” (E. coli); “E. faecalis (D)” (E. faecalis); “MRSA (D)” (MRSA); “S. epidermidis (M)” (S. epidermidis); “S. pneumoniae (D)” (S. pneumoniae).

“PF-419 (VVTGKVGSLPQIK; Peptide with targeting and/or antimicrobial activity)”: the “Organism, effect” value (S. pneumoniae) is on record as “S. pneumoniae (H)”.

On to “PF-431 (VAYAAICWW; Peptide with targeting and/or antimicrobial activity)”, for which the “Organism, effect (morphology, biofilm and growth disruption)” value (C. jejuni) is given as “C. jejuni (R)”; the “Organism, effect (morphology, biofilm and growth disruption)” value (E. faecalis) is “E. faecalis (R)”; the “Organism, effect (morphology, biofilm and growth disruption)” value (MRSA) is recorded as “MRSA (C)”; the “Organism, effect (morphology, biofilm and growth disruption)” value (S. epidermidis) is “S. epidermidis (M)”; the “Organism, effect (morphology, biofilm and growth disruption)” value (S. pneumoniae) is reported as “S. pneumoniae (R)”.

With “PF-432 (FNGDSEFFLCIAF; Peptide with targeting and/or antimicrobial activity)”, the “Organism, effect (morphology, biofilm and growth disruption)” value is, setting by setting: (C. jejuni) “C. jejuni (D)”; (E. coli) “E. coli (R)”; (E. faecalis) “E. faecalis (D)”; (MRSA) “MRSA (M)”; (P. aeruginosa) “P. aeruginosa (A)”; (S. epidermidis) “S. epidermidis (M)”. In addition, where the note is “S. pneumoniae”, the “Organism, effect (morphology, biofilm and growth disruption)” value was “S. pneumoniae (D)”.

Turning to “PF-449 (MPTTKSKQKGWTNTKKASNTQ; Peptide with targeting and/or antimicrobial activity)”, the “Organism, effect (morphology, biofilm and growth disruption)” value (S. pneumoniae) is given as “S. pneumoniae (H)”.
